In PubChem BioAssay (NCI):
Values joined by “and” are separate entries in the source; they are usually repeats but may differ in a detail not shown here. Equal values may be shown once.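 Five concentrations, 48 hours, 96-well plates. Here, GI50 denotes the concentration required for 50% inhibition of growth. TGI: total growth inhibition.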

Tests used:
Test in all cases: growth of human tumour cells (NCI), 48 h
NCI-H522 lung = test system: NCI-H522 lung
DLD-1 colon = test system: DLD-1 colon
HCC-2998 colon = test system: HCC-2998 colon
A498 renal = test system: A498 renal
NCI-H460 lung = test system: NCI-H460 lung
HOP-18 NSCLC = test system: HOP-18 NSCLC
HOP-62 NSCLC = test system: HOP-62 NSCLC
SK-MEL-5 melanoma = test system: SK-MEL-5 melanoma
T-47D breast = test system: T-47D breast
DU-145 prostate = test system: DU-145 prostate

| Structure (SMILES) | TGI (NCI-H522 lung) | TGI (DLD-1 colon) [µM] | TGI (HCC-2998 colon) | TGI (A498 renal) | TGI (NCI-H460 lung) | TGI (HOP-18 NSCLC) [µM] | TGI (HOP-62 NSCLC) | TGI (SK-MEL-5 melanoma) | GI50 (NCI-H522 lung) | GI50 (DLD-1 colon) | GI50 (A498 renal) | GI50 (NCI-H460 lung) [µM] | GI50 (HOP-62 NSCLC) [µM] | GI50 (SK-MEL-5 melanoma) [µM] | GI50 (HCC-2998 colon) [µM] | GI50 (HOP-18 NSCLC) [µM] | GI50 (T-47D breast) [µM] | GI50 (DU-145 prostate) [µM] | TGI (T-47D breast) [µM] | TGI (DU-145 prostate) [µM] |
| --- | --- | --- | --- | --- | --- | --- | --- | --- | --- | --- | --- | --- | --- | --- | --- | --- | --- | --- | --- | --- |
| O=C(OC[C@H]1O[C@@H](OC(=O)c2cc(O)c(O)c(O)c2)[C@H](OC(=O)c2cc(O)c(O)c(O)c2)[C@@H](OC(=O)c2cc(O)c(O)c(O)c2)[C@@H]1OC(=O)c1cc(O)c(O)c(O)c1)c1cc(O)c(O)c(O)c1 | 14.2 µM | 22.5 | 12.3 µM | 37.5 µM | 24.8 µM | > 100 | 14.4 µM | 24.2 µM | – | – | – | – | – | – | – | – | – | – | – | – |
| O=c1[nH]c(=O)n(C2OC3COC2C3O)cc1F (stereo not given) | > 100 µM | > 100 | > 100 µM | – | > 100 µM | > 100 | > 100 µM | > 100 µM | – | – | – | – | – | – | – | – | – | – | – | – |
| C=C1C(=O)OC2/C=C(\C=O)CC/C=C(\C)C(O)C[C@@H]12 (stereo not given in full) | 3.41 µM | 8.93 | 31.7 µM | 22.1 µM | 27.4 µM | 31.2 | 61.3 µM | 22.4 µM | – | – | – | – | – | – | – | – | – | – | – | – |
| O=C([CH-]C(=O)C(F)(F)F)c1ccccc1.O=C([CH-]C(=O)C(F)(F)F)c1ccccc1.O=C([CH-]C(=O)C(F)(F)F)c1ccccc1.O=C([CH-]C(=O)C(F)(F)F)c1ccccc1.[Eu+3].c1ccncc1 | 17.9 µM | > 100 | – | 88.8 µM | 43.7 µM | – | 64 µM | > 100 µM | 2.8 µM | 7.12 µM | 18.4 µM | 5.62 | 8.37 | 11.2 | – | – | – | – | – | – |
| COc1ccc(/C=C2\C(=O)N(C(=O)Cc3ccccc3)N=C2C)cc1OC | > 100 µM | – | > 100 µM | – | – | > 100 | > 100 µM | – | – | – | – | – | – | – | – | – | – | – | – | – |
| N.N.N.N.N.N.O=N[O-].[Br-].[Co+3].[Co+3].[OH3+].[OH3+] | – | > 100 | > 100 µM | – | – | > 100 | – | – | – | > 100 µM | – | – | – | – | 58.5 | 51.7 | – | – | – | – |
| COC(=O)c1c(-c2ccccc2)sc(-c2cccc3ccccc23)c1C(=O)OC | > 100 µM | > 100 | > 100 µM | > 100 µM | > 100 µM | > 100 | – | > 100 µM | – | – | – | – | – | – | – | – | – | – | – | – |
| Cc1cc2c(=O)c3ccccc3[nH]c2c(C(=O)O)c1C | – | > 100 | > 100 µM | > 100 µM | > 100 µM | – | > 100 µM | – | – | – | – | – | – | – | – | – | – | – | – | – |
| CCOC(=O)COS(=O)(=O)C(F)(F)F | > 100 µM | > 100 | > 100 µM | > 100 µM | > 100 µM | > 100 | > 100 µM | > 100 µM | – | – | – | – | – | – | – | – | – | – | – | – |
| C=C=C(C(=O)OC)S(=O)c1ccc([N+](=O)[O-])cc1[N+](=O)[O-] (stereo not given) | 21 µM | 29.7 | 31.2 µM | > 100 µM | > 91.2 µM | 98.7 | > 82.5 µM | > 100 µM | – | – | – | – | – | – | – | – | – | – | – | – |
| COc1cc(Br)c(C=Nc2cccc3ccc(OS(=O)(=O)c4cccc([N+](=O)[O-])c4)cc23)cc1OC | > 100 µM | > 100 | > 100 µM | > 100 µM | > 100 µM | > 100 | > 100 µM | > 100 µM | – | – | – | – | – | – | – | – | – | – | – | – |
| Nc1nc(CCC(=O)Nc2cccc(C(F)(F)F)c2)cc(-c2ccc3ccccc3c2)n1 | > 100 µM | > 100 | > 100 µM | > 100 µM | > 100 µM | > 100 | > 100 µM | > 100 µM | – | – | – | – | – | – | – | – | – | – | – | – |
| S=c1nc(-c2cccnc2)[nH][nH]1 | > 1 µM | > 100 | > 100 µM | > 100 µM | > 100 µM | > 100 | > 100 µM | > 100 µM | – | – | – | – | – | – | – | – | – | – | – | – |
| C1=CC=C2NCCOCCNC3=CC=CC=CC3=NCCOCCN=C2C=C1 | > 100 µM | > 100 | > 100 µM | > 100 µM | > 100 µM | > 100 | > 100 µM | > 100 µM | – | – | – | – | – | – | – | – | – | – | – | – |
| CC[C@@]1(O)C(=O)OCc2c1cc1n(c2=O)Cc2cc3cc(N)ccc3nc2-1 | 0.721 µM and 0.182 µM | > 100 | 0.495 µM and 1.36 µM | 0.143 µM and 0.152 µM | 0.212 µM | > 100 | 0.0157 µM and < 0.0151 µM | 0.195 µM and 0.0366 µM | 0.0261 µM and < 0.0112 µM | 0.0885 µM and 0.346 µM | 0.0277 µM and 0.0376 µM | 0.00149 | 0.00135 | 0.0238 | 0.0707 | – | 0.0476 | 0.0144 | – | – |
| COC(=O)C1=C(CS(=O)c2ccccc2[N+](=O)[O-])ON(C)C1c1ccccc1 (stereo not given) | 38 µM | > 100 | 82.9 µM | > 100 µM | > 100 µM | > 100 | > 100 µM | > 100 µM | – | – | – | – | – | – | – | – | – | – | – | – |
| CC1(C)C2CCC3(C2)CS(=O)(=O)N2OC231 (stereo not given) | 26.9 µM | 47.5 | > 100 µM | 44.5 µM | 37.1 µM | 32.1 | > 100 µM | 44.8 µM | – | – | – | – | – | – | – | – | – | – | – | – |
| Cc1c(Cl)cccc1NC(=O)CC1C(=O)Nc2ccccc2S1(=O)=O (stereo not given) | – | 30.4 | 33.4 µM | 28.9 µM | 30 µM | – | – | 26.7 µM | – | – | – | – | – | – | – | – | – | – | – | – |
| Oc1ccccc1-c1nc2c3ccccc3c3ccccc3c2[nH]1 | 10.3 µM | – | 12.1 µM | 24.6 µM | 12.1 µM | – | 15 µM | 24.4 µM | 3.07 µM | – | 12.2 µM | 3.39 | 3.93 | 12.1 | 4.13 | – | 1.89 | 13.6 | 12.8 | 26.5 |
| CCOC(=O)CC1NC(=O)CS1 (stereo not given) | – | > 100 | > 100 µM | > 100 µM | > 100 µM | > 100 | > 100 µM | > 100 µM | – | – | – | – | – | – | – | – | – | – | – | – |
| CN[C@@H]1C[C@H]2O[C@@](C)([C@@H]1OC)n1c3ccccc3c3c4c(c5c6ccccc6n2c5c31)C(=O)N[C@@H]4O | 0.197 µM and 0.382 µM | 15 | 0.3 µM and 2.69 µM | 0.0232 µM and 0.0257 µM | 0.3 µM and 1.47 µM | 0.268 | 0.17 µM and 0.334 µM | 0.766 µM | – | – | 0.0053 µM | – | 0.0401 | – | 0.0534 | – | – | – | – | 1.16 |
| CN1C(=O)C(Cl)(C(Cl)(Cl)S(=O)(=O)O)C(=O)c2ccccc21 (stereo not given) | > 100 µM | > 100 | > 100 µM | > 100 µM | > 100 µM | – | > 100 µM | > 100 µM | – | – | – | – | – | – | – | – | – | – | – | – |
